In patent publication US20230085307A1, “PYRIDAZINONE COMPOUND AND HERBICIDE” (NISSAN CHEMICAL CORPORATION, priority 2019, published 2023):

Key:
[1] = tested on: blackgrass; assay: Test Example 4: herbicidal effect by soil treatment (Table 19, symbol J); format: in vivo, blackgrass (Alopecurus myosuroides); settings: for herbicidal effect rating, J: blackgrass: 320 g/ha
Outline: (§1)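 Step 1: sow seeds in sterilized diluvial soil, cover ~1.5 cm. Step 2: spray diluted emulsion onto soil surface at predetermined rate. Step 3: greenhouse, 25–30° C, three weeks. Step 4: grade effect on each plant by earlier criteria.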

[2] = tested on: windgrass; assay: Test Example 5: herbicidal effect by foliage application, plastic box (Table 20, symbol L); format: in vivo, windgrass (Apera spica-venti); settings: foliage application; for effect on windgrass (L): 320 g/ha, 3 weeks after application
Outline: (§2)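 Foliar spray test: emulsion formulation diluted in water to a set application rate, sprayed onto 14-day-old plants raised in diluvial soil at 25° C to 30° C under glass. Both herbicidal effect and crop effect rated visually three weeks later.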

[3] = tested on: Italian ryegrass; assay: Test Example 4: herbicidal effect by soil treatment (Table 19, symbol K); format: in vivo, Italian ryegrass (Lolium multiflorum); settings: for herbicidal effect rating, K: Italian ryegrass: 320 g/ha
Outline: as §1

[4] = tested on: rice flat sedge; assay: Test Example 3: herbicidal effect by foliage application, Wagner pot (Table 18, symbol E); format: in vivo, rice flat sedge (Cyperus iria); settings: for herbicidal effect on E (rice flat sedge), rating 0-5: 320 g/ha
Outline: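 Plants were sown in alluvial soil held under 0.1–0.5 cm standing water and grown 14 days in a greenhouse at 25–30 °C. An emulsifiable formulation, water-diluted to the set dose, was then sprayed onto the foliage, and effects were scored three weeks later using previously defined criteria.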

[5] = tested on: oval-leafed pondweed; assay: Test Example 2: herbicidal activity, application during weed generation under submerged conditions (Table 17, symbol C); format: in vivo, oval-leafed pondweed (Monochoria vaginalis); settings: application during weed generation, submerged conditions
Outline: (§3)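 Effect on each weed is rated three weeks post-treatment, using the same scoring criteria as the preceding test. Plants grow from mixed-sown seed in flooded alluvial soil (4 cm water) at 25° C. to 30° C., and are treated at one to two leaves with diluted emulsion dropped onto the water.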

[6] = tested on: green foxtail; assay: Test Example 5: herbicidal effect by foliage application, plastic box (Table 20, symbol G); format: in vivo, green foxtail (Setaria viridis); settings: foliage application; for effect on green foxtail (G): 320 g/ha, 3 weeks after application
Outline: as §2

[7] = tested on: persian speedwell; assay: Test Example 5: herbicidal effect by foliage application, plastic box (Table 20, symbol R); format: in vivo, Persian speedwell (Veronica persica); settings: foliage application; for effect on persian speedwell (R): 320 g/ha, 3 weeks after application
Outline: as §2

[8] = tested on: late watergrass; assay: Test Example 1: herbicidal activity, application before weed generation under submerged conditions (Table 16, symbol A); format: in vivo, late watergrass (Echinochloa oryzicola); settings: for Herbicidal effect on A: late watergrass (grade 0-5): 320 g/ha applied herbicide
Outline: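 Emulsion formulation, water-diluted to set dose, was put onto the flooded surface (4 cm depth, alluvial soil) the same day weeds were sown and 2.5-leaf rice transplanted. After 3 weeks at 25-30 °C under glass, each species was rated 0 (≤5% kill) to 5 (≥90% kill).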

[9] = tested on: southern crabgrass; assay: Test Example 5: herbicidal effect by foliage application, plastic box (Table 20, symbol F); format: in vivo, southern crabgrass (Digitaria ciliaris); settings: foliage application; for effect on southern crabgrass (F): 320 g/ha, 3 weeks after application
Outline: as §2

[10] = tested on: redroot pigweed; assay: Test Example 4: herbicidal effect by soil treatment (Table 19, symbol N); format: in vivo, redroot pigweed (Amaranthus retroflexus); settings: for herbicidal effect rating, N: redroot pigweed: 320 g/ha
Outline: as §1

[11] = tested on: chickweed; assay: Test Example 4: herbicidal effect by soil treatment (Table 19, symbol P); format: in vivo, common chickweed (Stellaria media); settings: for herbicidal effect rating, P: chickweed: 320 g/ha
Outline: as §1

[12] = tested on: southern crabgrass; assay: Test Example 4: herbicidal effect by soil treatment (Table 19, symbol F); format: in vivo, southern crabgrass (Digitaria ciliaris); settings: for herbicidal effect rating, F: southern crabgrass: 320 g/ha
Outline: as §1

[13] = tested on: green foxtail; assay: Test Example 4: herbicidal effect by soil treatment (Table 19, symbol G); format: in vivo, green foxtail (Setaria viridis); settings: for herbicidal effect rating, G: green foxtail: 320 g/ha
Outline: as §1

[14] = tested on: wild oat; assay: Test Example 5: herbicidal effect by foliage application, plastic box (Table 20, symbol I); format: in vivo, wild oat (Avena fatua); settings: foliage application; for effect on wild oat (I): 320 g/ha, 3 weeks after application
Outline: as §2

[15] = tested on: Japanese bulrush; assay: Test Example 2: herbicidal activity, application during weed generation under submerged conditions (Table 17, symbol B); format: in vivo, Japanese bulrush (Schoenoplectus juncoides); settings: application during weed generation, submerged conditions
Outline: as §3

[16] = amount of applied herbicide 246 g/ha
[17] = 246 g/ha, three weeks after application

Row | Compound | herbicidal effect rating, J: blackgrass [1] | effect on windgrass (L) [2] | herbicidal effect rating, K: Italian ryegrass [3] | herbicidal effect on E (rice flat sedge), rating 0-5 [4] | herbicidal effect rating, C: oval-leafed pondweed ([5]; AAH 320 g/ha) | effect on green foxtail (G) [6] | effect on persian speedwell (R) [7] | Herbicidal effect on A: late watergrass (grade 0-5) [8] | effect on southern crabgrass (F) [9] | herbicidal effect rating, N: redroot pigweed [10] | herbicidal effect rating, P: chickweed [11] | herbicidal effect rating, F: southern crabgrass [12] | herbicidal effect rating, G: green foxtail [13] | effect on wild oat (I) [14] | herbicidal effect rating, B: Japanese bulrush ([15]; AAH 320 g/ha) | further results
1 | Cc1nn(C)c(=O)c(-c2c(-c3ccccc3OC(F)(F)F)sc3ccc(F)cc23)c1O [2-043] | 0 (Herbicidal rate of 5% or less (almost no effect)) | 3 (Herbicidal rate of 40% or more and less than 70%) | 0 (Herbicidal rate of 5% or less (almost no effect)) | 5 (Herbicidal rate of 90% or more (almost completely withered)) | 0 (Herbicidal rate of 5% or less (almost no effect)) | 5 (Herbicidal rate of 90% or more (almost completely withered)) | 5 (Herbicidal rate of 90% or more (almost completely withered)) | 0 (Herbicidal rate of 5% or less (almost no effect)) | 4 (Herbicidal rate of 70% or more and less than 90%) | 5 (Herbicidal rate of 90% or more (almost completely withered)) | 1 (Herbicidal rate of 5% or more and less than 20%) | 5 (Herbicidal rate of 90% or more (almost completely withered)) | 5 (Herbicidal rate of 90% or more (almost completely withered)) | 2 (Herbicidal rate of 20% or more and less than 40%) | 2 (Herbicidal rate of 20% or more and less than 40%) | –
2 | CCCC(=O)Oc1c(C)nn(C)c(=O)c1-c1c(-c2ccc(OC)cc2)sc2ccc(F)cc12 [2-027] | 0 (Herbicidal rate of 5% or less (almost no effect)) | 0 (Herbicidal rate of 5% or less (almost no effect)) | 4 (Herbicidal rate of 70% or more and less than 90%) | 5 (Herbicidal rate of 90% or more (almost completely withered)) | 5 (Herbicidal rate of 90% or more (almost completely withered)) | 4 (Herbicidal rate of 70% or more and less than 90%) | 5 (Herbicidal rate of 90% or more (almost completely withered)) | 4 (Herbicidal rate of 70% or more and less than 90%) | 4 (Herbicidal rate of 70% or more and less than 90%) | 5 (Herbicidal rate of 90% or more (almost completely withered)) | 4 (Herbicidal rate of 70% or more and less than 90%) | 3 (Herbicidal rate of 40% or more and less than 70%) | 4 (Herbicidal rate of 70% or more and less than 90%) | 4 (Herbicidal rate of 70% or more and less than 90%) | 4 (Herbicidal rate of 70% or more and less than 90%) | –
3 | Cc1nn(C)c(=O)c(-c2c(-c3ccc(OC(F)F)cc3)sc3ccccc23)c1O [1-201] | – | 4 (Herbicidal rate of 70% or more and less than 90%) | – | 5 (Herbicidal rate of 90% or more (almost completely withered)) | 3 (Herbicidal rate of 40% or more and less than 70%) | 5 (Herbicidal rate of 90% or more (almost completely withered)) | 5 (Herbicidal rate of 90% or more (almost completely withered)) | 3 (Herbicidal rate of 40% or more and less than 70%) | 0 (Herbicidal rate of 5% or less (almost no effect)) | – | – | – | – | 2 (Herbicidal rate of 20% or more and less than 40%) | 3 (Herbicidal rate of 40% or more and less than 70%) | J: blackgrass, herbicidal effect rating ([1]; AAH 320 g/ha): 0 (Herbicidal rate of 5% or less (almost no effect)); K: Italian ryegrass, herbicidal effect rating ([3]; AAH 320 g/ha): 4 (Herbicidal rate of 70% or more and less than 90%); N: redroot pigweed, herbicidal effect rating ([10]; AAH 320 g/ha): 5 (Herbicidal rate of 90% or more (almost completely withered)); P: chickweed, herbicidal effect rating ([11]; AAH 320 g/ha): 4 (Herbicidal rate of 70% or more and less than 90%); F: southern crabgrass, herbicidal effect rating ([12]; AAH 320 g/ha): 2 (Herbicidal rate of 20% or more and less than 40%); G: green foxtail, herbicidal effect rating ([13]; AAH 320 g/ha): 5 (Herbicidal rate of 90% or more (almost completely withered))
4 | CCCC(=O)Oc1c(C)nn(C)c(=O)c1-c1c(-c2ccc(COC)cc2)sc2ccc(F)cc12 [2-023] | 3 (Herbicidal rate of 40% or more and less than 70%) | 4 (Herbicidal rate of 70% or more and less than 90%) | 4 (Herbicidal rate of 70% or more and less than 90%) | 5 (Herbicidal rate of 90% or more (almost completely withered)) | 0 (Herbicidal rate of 5% or less (almost no effect)) | 5 (Herbicidal rate of 90% or more (almost completely withered)) | 5 (Herbicidal rate of 90% or more (almost completely withered)) | 2 (Herbicidal rate of 20% or more and less than 40%) | 5 (Herbicidal rate of 90% or more (almost completely withered)) | 5 (Herbicidal rate of 90% or more (almost completely withered)) | 3 (Herbicidal rate of 40% or more and less than 70%) | 4 (Herbicidal rate of 70% or more and less than 90%) | 5 (Herbicidal rate of 90% or more (almost completely withered)) | 0 (Herbicidal rate of 5% or less (almost no effect)) | 0 (Herbicidal rate of 5% or less (almost no effect)) | –
5 | CCCC(=O)Oc1c(C)nn(C)c(=O)c1-c1c(-c2ccc(F)cc2OCC)oc2ccc(C)cc12 [9-010] | – | – | – | – | – | – | – | – | – | – | – | – | – | – | – | J: blackgrass, herbicidal effect grade [1, 16]: 0 (Herbicidal rate of 5% or less (almost no effect)); herbicidal effect on windgrass (L) [2, 17]: 0 (Herbicidal rate of 5% or less (almost no effect)); K: Italian ryegrass, herbicidal effect grade [3, 16]: 0 (Herbicidal rate of 5% or less (almost no effect)); Herbicidal effect on E (rice flat sedge), foliage application [4, 16]: 4 (Herbicidal rate of 70% or more and less than 90%); herbicidal effect rating, C: oval-leafed pondweed ([5]; AAH 246 g/ha): 2 (Herbicidal rate of 20% or more and less than 40%); herbicidal effect on green foxtail (G) [6, 17]: 2 (Herbicidal rate of 20% or more and less than 40%); herbicidal effect on persian speedwell (R) [7, 17]: 3 (Herbicidal rate of 40% or more and less than 70%); Herbicidal effect, A: late watergrass [8, 16]: 5 (Herbicidal rate of 90% or more (almost completely withered)); herbicidal effect on southern crabgrass (F) [9, 17]: 3 (Herbicidal rate of 40% or more and less than 70%); N: redroot pigweed, herbicidal effect grade [10, 16]: 0 (Herbicidal rate of 5% or less (almost no effect)); P: chickweed, herbicidal effect grade [11, 16]: 0 (Herbicidal rate of 5% or less (almost no effect)); F: southern crabgrass, herbicidal effect grade [12, 16]: 0 (Herbicidal rate of 5% or less (almost no effect)); G: green foxtail, herbicidal effect grade [13, 16]: 3 (Herbicidal rate of 40% or more and less than 70%); herbicidal effect on wild oat (I) [14, 17]: 1 (Herbicidal rate of 5% or more and less than 20%); herbicidal effect rating, B: Japanese bulrush ([15]; AAH 246 g/ha): 0 (Herbicidal rate of 5% or less (almost no effect))
